According to ChEMBL document CHEMBL3243923, “Linked Aryl Aryloxypropanolamines as a new class of lipid catabolis agents” (J Med Chem, 1978):
The source made the active and inactive calls. The rule behind the calls is not given here.

Tested on: not listed separately
Assay: Therapeutic index, ratio of MNTD for chronic toxicity in po dosed mouse to ED25 for antiobesity activity in mouse assessed as reduction in utero fat
Format: organism-based
Details: in vivo, read-out: TI

SMILES	selectivity ratio
CC(C)NCC(O)COc1c(C(C)(C)C)cc(-c2ccc(Cl)cc2)cc1C(C)(C)C (stereo not drawn)	3.6
CCc1cc(/C=C/c2ccccc2)cc(CC)c1OCC(O)CNC(C)C (stereo not drawn)	1.7
CC(C)NCC(O)COc1c(C(C)(C)C)cc(/C=C/c2ccc(Cl)cc2)cc1C(C)(C)C (stereo not drawn)	1
CC(C)NCC(O)COc1ccc(-c2ccc(Cl)cc2)cc1.Cl (stereo not drawn)	0.5
CC(C)NCC(O)COc1c(C(C)(C)C)cc(-c2ccccc2)cc1C(C)(C)C.Cl (stereo not drawn)	5
COc1ccc(/C=C/c2cc(C(C)(C)C)c(OCC(O)CNC(C)C)c(C(C)(C)C)c2)cc1 (stereo not drawn)	1.25
CC(C)NCC(O)COc1c(C(C)(C)C)cc(/C=C/c2cccc(Cl)c2)cc1C(C)(C)C (stereo not drawn)	1.4
CC(C)NCC(O)COc1c(C(C)(C)C)cc(/C=C/c2ccc(Br)cc2)cc1C(C)(C)C (stereo not drawn)	4.3

Tested on: Mus musculus
Assay: Antiobesity activity in mouse assessed as reduction in utero fat at 0.02% administered every day through diet for 10 days measured after day 10 relative to control
Format: functional
Parameters: scale not given: the % may be the effect or the level left
Details: not given

SMILES	Activity
CCc1cc(/C=C/c2ccccc2)cc(CC)c1OCC(O)CNC(C)C (stereo not drawn)	20%
CC(C)NCC(O)COc1c(C(C)(C)C)cc(/C=C/c2ccccc2)cc1C(C)(C)C (stereo not drawn)	inactive
COc1ccc(/C=C/c2cc(C(C)(C)C)c(OCC(O)CNC(C)C)c(C(C)(C)C)c2)cc1 (stereo not drawn)	26%
CC(C)NCC(O)COc1c(C(C)(C)C)cc(/C=C/c2ccc(O)cc2)cc1C(C)(C)C.O=C(O)/C=C\C(=O)O (stereo not drawn)	20%
CC(C)NCC(O)COc1c(C(C)(C)C)cc(/C=C/c2ccc(Br)cc2)cc1C(C)(C)C (stereo not drawn)	31%

Tested on: Mus musculus
Assay: Antiobesity activity in mouse assessed as reduction in utero fat administered every day through diet for 10 days measured after day 10
Format: functional
Details: 240 h

SMILES	ED25
CC(C)NCC(O)COc1c(C(C)(C)C)cc(-c2ccc(Cl)cc2)cc1C(C)(C)C (stereo not drawn)	30 mg/kg
CCc1cc(/C=C/c2ccccc2)cc(CC)c1OCC(O)CNC(C)C (stereo not drawn)	45 mg/kg
CC(C)NCC(O)COc1c(C(C)(C)C)cc(/C=C/c2ccc(Cl)cc2)cc1C(C)(C)C (stereo not drawn)	100 mg/kg
CC(C)NCC(O)COc1ccc(-c2ccc(Cl)cc2)cc1.Cl (stereo not drawn)	50 mg/kg
CC(C)NCC(O)COc1c(C(C)(C)C)cc(-c2ccccc2)cc1C(C)(C)C.Cl (stereo not drawn)	20 mg/kg
CC(C)NCC(O)COc1c(C2CCCCC2)cc(/C=C/c2ccccc2)cc1C1CCCCC1.O=C(O)/C=C\C(=O)O (stereo not drawn)	38 mg/kg
CC(C)NCC(O)COc1c(C(C)(C)C)cc([S+]([O-])c2ccc(Cl)cc2)cc1C(C)(C)C.O=C(O)/C=C\C(=O)O (stereo not drawn)	45 mg/kg
CC(C)NCC(O)COc1c(C(C)(C)C)cc(Oc2ccccc2)cc1C(C)(C)C.O=C(O)/C=C\C(=O)O (stereo not drawn)	20 mg/kg
COc1ccc(/C=C/c2cc(C(C)(C)C)c(OCC(O)CNC(C)C)c(C(C)(C)C)c2)cc1 (stereo not drawn)	20 mg/kg
CC(C)NCC(O)COc1c(C(C)(C)C)cc(/C=C/c2cccc(Cl)c2)cc1C(C)(C)C (stereo not drawn)	72 mg/kg
CC(C)NCC(O)COc1c(C(C)(C)C)cc(/C=C/c2ccc(Br)cc2)cc1C(C)(C)C (stereo not drawn)	34 mg/kg

Tested on: Rattus norvegicus
Assay: Toxicity in rat assessed as increase in liver weight at 100 mg/kg, po qd administered for 5 days measured on day 6 relative to control
Format: organism-based
Parameters: dose 100 mg/kg, route oral
Details: in vivo, 120 h

SMILES	Activity
CC(C)NCC(O)COc1c(C(C)(C)C)cc(-c2ccccc2)cc1C(C)(C)C.Cl (stereo not drawn)	21%

Tested on: not listed separately
Assay: (§1) Chronic toxicity in po dosed mouse assessed as mortality administered as qd for 21 days
Format: organism-based
Details: in vivo, read-out: MNTD

SMILES	MTD at 504 h
CC(C)NCC(O)COc1c(C(C)(C)C)cc(-c2ccc(Cl)cc2)cc1C(C)(C)C (stereo not drawn)	100 mg/kg
CCc1cc(/C=C/c2ccccc2)cc(CC)c1OCC(O)CNC(C)C (stereo not drawn)	75 mg/kg
CC(C)NCC(O)COc1c(C(C)(C)C)cc(/C=C/c2ccc(Cl)cc2)cc1C(C)(C)C (stereo not drawn)	100 mg/kg
CC(C)NCC(O)COc1ccc(-c2ccc(Cl)cc2)cc1.Cl (stereo not drawn)	25 mg/kg
CC(C)NCC(O)COc1c(C(C)(C)C)cc(-c2ccccc2)cc1C(C)(C)C.Cl (stereo not drawn)	100 mg/kg
CC(C)NCC(O)COc1c(C2CCCCC2)cc(/C=C/c2ccccc2)cc1C1CCCCC1.O=C(O)/C=C\C(=O)O (stereo not drawn)	100 mg/kg
CC(C)NCC(O)COc1c(C(C)(C)C)cc([S+]([O-])c2ccc(Cl)cc2)cc1C(C)(C)C.O=C(O)/C=C\C(=O)O (stereo not drawn)	75 mg/kg
CC(C)NCC(O)COc1c(C(C)(C)C)cc(Oc2ccccc2)cc1C(C)(C)C.O=C(O)/C=C\C(=O)O (stereo not drawn)	100 mg/kg
COc1ccc(/C=C/c2cc(C(C)(C)C)c(OCC(O)CNC(C)C)c(C(C)(C)C)c2)cc1 (stereo not drawn)	25 mg/kg
CC(C)NCC(O)COc1c(C(C)(C)C)cc(/C=C/c2cccc(Cl)c2)cc1C(C)(C)C (stereo not drawn)	100 mg/kg
CC(C)NCC(O)COc1c(C(C)(C)C)cc(/C=C/c2ccc(Br)cc2)cc1C(C)(C)C (stereo not drawn)	150 mg/kg

Tested on: Mus musculus
Assay: as §1
Format: organism-based
Details: in vivo, 504 h

SMILES	Activity
CC(C)NCC(O)COc1ccc(-c2cccs2)cc1 (stereo not drawn)	Toxic

Tested on: Rattus norvegicus
Assay: Toxicity in rat assessed as increase in adrenal weight at 100 mg/kg, po qd administered for 5 days measured on day 6 relative to control
Format: organism-based
Parameters: dose 100 mg/kg, route oral
Details: in vivo, 120 h

SMILES	Activity
CC(C)NCC(O)COc1c(C(C)(C)C)cc(-c2ccccc2)cc1C(C)(C)C.Cl (stereo not drawn)	16%

Tested on: Mus musculus
Assay: Antiobesity activity in mouse assessed as reduction in utero fat at 0.01% administered every day through diet for 10 days measured after day 10 relative to control
Format: functional
Parameters: scale not given: the % may be the effect or the level left
Details: not given

SMILES	Activity
CC(C)NCC(O)COc1ccc(-c2cccs2)cc1 (stereo not drawn)	34%

Tested on: Mus musculus
Assay: Antiobesity activity in mouse assessed as reduction in utero fat at 0.04% administered every day through diet for 10 days measured after day 10 relative to control
Format: functional
Parameters: scale not given: the % may be the effect or the level left
Details: not given

SMILES	Activity
CCc1cc(/C=C/c2ccccc2F)cc(CC)c1OCC(O)CNC(C)C (stereo not drawn)	37%
CC(C)NCC(O)COc1c(C(C)(C)C)cc(-c2ccc(Cl)cc2)cc1C(C)(C)C (stereo not drawn)	36%
CC(C)NCC(O)COc1c(C(C)(C)C)cc(/C=C/c2ccc(Cl)cc2)cc1C(C)(C)C (stereo not drawn)	22%
CC(C)NCC(O)COc1c(C(C)(C)C)cc(CCc2ccccc2)cc1C(C)(C)C (stereo not drawn)	inactive
CC(C)NCC(O)COc1ccc(-c2ccc(Cl)cc2)cc1.Cl (stereo not drawn)	23%
CC(C)NCC(O)COc1c(C(C)(C)C)cc(-c2ccccc2)cc1C(C)(C)C.Cl (stereo not drawn)	28%
CC(C)NCC(O)COc1c(C2CCCCC2)cc(/C=C/c2ccccc2)cc1C1CCCCC1.O=C(O)/C=C\C(=O)O (stereo not drawn)	27%
CC(C)NCC(O)COc1c(C(C)(C)C)cc([S+]([O-])c2ccc(Cl)cc2)cc1C(C)(C)C.O=C(O)/C=C\C(=O)O (stereo not drawn)	23%
CC(C)NCC(O)COc1c(C(C)(C)C)cc(Oc2ccccc2)cc1C(C)(C)C.O=C(O)/C=C\C(=O)O (stereo not drawn)	20%
CC(C)NCC(O)COc1c(C(C)(C)C)cc(/C=C/c2cccc(Cl)c2)cc1C(C)(C)C (stereo not drawn)	21%

Tested on: Mus musculus
Assay: Toxicity in mouse assessed as liver hypertrophy at 1000 mg/kg, po administered for 21 days
Format: organism-based
Parameters: dose 1000 mg/kg, route oral
Details: in vivo, 504 h

SMILES	Activity
CC(C)NCC(O)COc1c(C(C)(C)C)cc(-c2ccc(Cl)cc2)cc1C(C)(C)C (stereo not drawn)	Non-toxic
CCc1cc(/C=C/c2ccccc2)cc(CC)c1OCC(O)CNC(C)C (stereo not drawn)	Non-toxic
CC(C)NCC(O)COc1c(C(C)(C)C)cc(/C=C/c2ccc(Cl)cc2)cc1C(C)(C)C (stereo not drawn)	Non-toxic
CC(C)NCC(O)COc1ccc(-c2ccc(Cl)cc2)cc1.Cl (stereo not drawn)	Non-toxic
CC(C)NCC(O)COc1c(C(C)(C)C)cc(-c2ccccc2)cc1C(C)(C)C.Cl (stereo not drawn)	Toxic
CC(C)NCC(O)COc1c(C2CCCCC2)cc(/C=C/c2ccccc2)cc1C1CCCCC1.O=C(O)/C=C\C(=O)O (stereo not drawn)	Non-toxic
CC(C)NCC(O)COc1c(C(C)(C)C)cc([S+]([O-])c2ccc(Cl)cc2)cc1C(C)(C)C.O=C(O)/C=C\C(=O)O (stereo not drawn)	Non-toxic
CC(C)NCC(O)COc1c(C(C)(C)C)cc(Oc2ccccc2)cc1C(C)(C)C.O=C(O)/C=C\C(=O)O (stereo not drawn)	Non-toxic
COc1ccc(/C=C/c2cc(C(C)(C)C)c(OCC(O)CNC(C)C)c(C(C)(C)C)c2)cc1 (stereo not drawn)	Non-toxic
CC(C)NCC(O)COc1c(C(C)(C)C)cc(/C=C/c2cccc(Cl)c2)cc1C(C)(C)C (stereo not drawn)	Non-toxic
CC(C)NCC(O)COc1c(C(C)(C)C)cc(/C=C/c2ccc(Br)cc2)cc1C(C)(C)C (stereo not drawn)	Non-toxic

Tested on: Rattus norvegicus
Assay: Antiobesity activity in rat assessed as reduction in food intake at 100 mg/kg, po qd administered for 5 days measured every day for 5 days relative to control
Format: functional
Parameters: scale not given: the % may be the effect or the level left
Details: not given

SMILES	Activity
CC(C)NCC(O)COc1c(C(C)(C)C)cc(-c2ccccc2)cc1C(C)(C)C.Cl (stereo not drawn)	51%

Tested on: Rattus norvegicus
Assay: Antiobesity activity in rat assessed as reduction in body weight at 100 mg/kg, po qd administered for 5 days measured on day 6 relative to control
Format: functional
Parameters: scale not given: the % may be the effect or the level left
Details: not given

SMILES	Activity
CC(C)NCC(O)COc1c(C(C)(C)C)cc(-c2ccccc2)cc1C(C)(C)C.Cl (stereo not drawn)	4%

Tested on: Rattus norvegicus
Assay: Antiobesity activity in rat assessed as reduction in utero fat at 100 mg/kg, po qd administered for 5 days measured on day 6 relative to control
Format: functional
Parameters: scale not given: the % may be the effect or the level left
Details: not given

SMILES	Activity
CC(C)NCC(O)COc1c(C(C)(C)C)cc(-c2ccccc2)cc1C(C)(C)C.Cl (stereo not drawn)	28%
